{"source": "patent US8841413B2", "about": "“Antidiabetic compounds” (Cadila Healthcare Limited, priority 2006, dated 2014)", "key": {"[1]": {"assay": "Stability in human plasma", "format": "in vitro ADME", "settings": "for half-life (t1/2) in human plasma / % degradation in 24 h when incubated with human plasma: 2 μM, 37° C.", "outline": "(§1)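 UV detection at 206 nm tracked the remaining material after HPLC separation at a flow of 1 mL/min in TFA/H2O. Incubations had been ended by adding aqueous TFA (10%, v/v), and eluted peaks were identified by ESI-MS.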"}, "[2]": {"assay": "Stability against liver microsomes", "format": "in vitro ADME, human", "settings": "for % degradation in 24 h when incubated with liver microsomes: 2 μM, 37° C.; for half-life at 2 μM: human, human liver microsomes, pH 7.8, 37° C., read-out: half-life (t1/2) with liver microsomes", "outline": "as §1"}, "[3]": {"assay": "Stability in simulated gastric fluid", "format": "in vitro ADME", "settings": "37° C., pH 1.5, pepsin; for half-life at 2 μM: simulated gastric fluid with pepsin, read-out: half-life (t1/2) in simulated gastric fluid", "outline": "as §1"}, "[4]": {"assay": "Stability in simulated intestinal fluid", "format": "in vitro ADME", "settings": "37° C.; for half-life at 2 μM: simulated intestinal fluid, pH 7.5, read-out: half-life (t1/2) in simulated intestinal fluid", "outline": "as §1"}, "human glucagon receptor": {"molecular_target": "T1, human glucagon receptor (Homo sapiens, UniProt P47871)", "T1 construct": "The full-length cDNA was cloned in pcDNA3.1(Invitrogen); expressed in transfected cells", "T1 sequence (P47871 26-477)": "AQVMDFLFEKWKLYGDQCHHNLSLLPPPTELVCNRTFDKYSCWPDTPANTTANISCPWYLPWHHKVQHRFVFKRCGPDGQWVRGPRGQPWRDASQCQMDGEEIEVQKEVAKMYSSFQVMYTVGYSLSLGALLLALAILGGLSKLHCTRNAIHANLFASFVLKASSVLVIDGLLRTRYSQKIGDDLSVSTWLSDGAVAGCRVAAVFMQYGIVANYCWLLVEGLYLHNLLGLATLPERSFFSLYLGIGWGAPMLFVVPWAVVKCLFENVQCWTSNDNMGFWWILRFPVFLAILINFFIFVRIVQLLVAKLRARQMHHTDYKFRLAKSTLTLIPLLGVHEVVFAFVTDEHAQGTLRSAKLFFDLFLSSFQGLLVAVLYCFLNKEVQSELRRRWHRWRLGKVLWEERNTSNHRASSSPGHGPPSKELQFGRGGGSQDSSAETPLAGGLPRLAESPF", "assay": "In vitro human glucagon antagonist activity (inhibition of cAMP production), CHO/human glucagon R cells", "format": "cell-based"}, "DPP IV": {"molecular_target": "DPP IV (Homo sapiens, UniProt P27487)", "sequence (P27487 whole entry, species assumed)": "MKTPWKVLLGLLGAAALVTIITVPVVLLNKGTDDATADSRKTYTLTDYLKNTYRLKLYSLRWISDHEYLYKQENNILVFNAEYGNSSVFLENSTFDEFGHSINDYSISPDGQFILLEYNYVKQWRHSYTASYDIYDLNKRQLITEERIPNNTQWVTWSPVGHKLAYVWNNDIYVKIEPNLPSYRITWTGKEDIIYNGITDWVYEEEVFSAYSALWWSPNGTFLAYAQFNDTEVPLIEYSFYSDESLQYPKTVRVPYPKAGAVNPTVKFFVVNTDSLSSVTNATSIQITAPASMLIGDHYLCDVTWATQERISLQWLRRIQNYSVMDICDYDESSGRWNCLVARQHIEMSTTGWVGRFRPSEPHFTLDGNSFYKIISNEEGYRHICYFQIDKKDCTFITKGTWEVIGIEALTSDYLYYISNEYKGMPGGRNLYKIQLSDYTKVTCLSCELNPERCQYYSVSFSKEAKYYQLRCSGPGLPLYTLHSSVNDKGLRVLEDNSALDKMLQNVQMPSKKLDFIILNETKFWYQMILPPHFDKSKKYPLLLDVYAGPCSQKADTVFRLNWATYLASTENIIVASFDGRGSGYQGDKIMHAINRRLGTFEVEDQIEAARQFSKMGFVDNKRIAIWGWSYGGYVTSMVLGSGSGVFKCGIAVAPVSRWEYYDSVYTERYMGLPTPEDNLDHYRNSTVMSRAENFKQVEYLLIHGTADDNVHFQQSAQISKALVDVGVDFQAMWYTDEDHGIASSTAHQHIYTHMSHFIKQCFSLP", "assay": "Stability against DPP IV enzyme", "format": "in vitro ADME", "settings": "for % degradation in 24 h when incubated with DPP-IV enzyme: 2 μM, 37° C.", "outline": "as §1"}, "[5]": {"tested_on": "RIN5F (Rat Insulinoma) cells", "assay": "In vitro glucose-dependent insulin secretion (RIN5F cell assay)", "format": "cell-based", "settings": "16.7 mM glucose load, mean ± S.D., n = 3", "procedure": "After trypsinization, RIN5F cells were seeded at a concentration of 0.2×10^6·cells per well, in 12 well plates.\nThe supernatant was collected and the insulin amount was measured by ultra sensitive Rat insulin ELISA kit (Crystal Chem, Ill.). The protein was estimated in the supernatant using Bicinchoninic Acid kit, according to the manufacturer's protocol (Sigma Aldrich, Mo.). The total insulin content obtained in Pico-gram (pg) was divided with the total protein (μg) in order to normalize for differences in cell density between wells."}, "[6]": {"settings": "1 nM test compound (fourth concentration column, between 100 nM and 10 μM) with saturated concentration of glucagon peptide"}, "[7]": {"settings": "1 nM test compound with saturated concentration of glucagon peptide"}, "[8]": {"settings": "10 nM test compound with saturated concentration of glucagon peptide"}, "[9]": {"settings": "100 nM test compound with saturated concentration of glucagon peptide"}, "[10]": {"settings": "10 μM test compound with saturated concentration of glucagon peptide"}}}
{"compound": "CCc1cc(OC)ccc1-c1ccc(CC(NC(=O)[C@H](CC(=O)O)NC(=O)[C@H](CO)NC(=O)[C@@H](NC(=O)[C@H](Cc2ccccc2)NC(=O)[C@@H](NC(=O)CNC(=O)[C@H](CCC(N)=O)NC(=O)[C@H](C)NC(=O)[C@@H](N)Cc2c[nH]cn2)[C@@H](C)O)[C@@H](C)O)C(=O)NC(Cc2ccc(-c3ccccc3C(F)(F)F)cc2)C(N)=O)cc1", "note": "(single isomer, unassigned) [compound 12]", "values": [{"measurement": "half-life (t1/2) in human plasma", "setting": "[1]", "result": "(9) h"}, {"measurement": "% degradation in 24 h when incubated with human plasma", "setting": "[1]", "result": 70, "unit": "%"}, {"measurement": "% degradation in 24 h when incubated with liver microsomes", "setting": "[2]", "result": 100, "unit": "%"}, {"measurement": "half-life at 2 μM", "setting": "[2]", "result": 30, "unit": "min"}, {"measurement": "% degradation in 24 h when incubated with simulated gastric fluid", "setting": "[3]; 2 μM", "result": 100, "unit": "%"}, {"measurement": "half-life at 2 μM", "setting": "[3]", "result": 30, "unit": "min"}, {"measurement": "% degradation in 24 h when incubated with simulated intestinal fluid", "setting": "[4]; 2 μM, pH 7.5", "result": 100, "unit": "%"}, {"measurement": "half-life at 2 μM", "setting": "[4]", "result": 30, "unit": "min"}, {"measurement": "Human Glucagon receptor antagonistic activity, inhibition of cAMP production of Glucagon peptide", "setting": "human glucagon receptor; [6]", "result": 0, "unit": "pmol/ml/μg prt"}, {"measurement": "Human Glucagon receptor antagonistic activity, inhibition of cAMP production of Glucagon peptide", "setting": "human glucagon receptor; [7]", "result": "5 ± 0.09", "unit": "pmol/ml/μg prt"}, {"measurement": "Human Glucagon receptor antagonistic activity, inhibition of cAMP production of Glucagon peptide", "setting": "human glucagon receptor; [8]", "result": "3 ± 0.11", "unit": "pmol/ml/μg prt"}, {"measurement": "Human Glucagon receptor antagonistic activity, inhibition of cAMP production of Glucagon peptide", "setting": "human glucagon receptor; [9]", "result": 0, "unit": "pmol/ml/μg prt"}, {"measurement": "Human Glucagon receptor antagonistic activity, inhibition of cAMP production of Glucagon peptide", "setting": "human glucagon receptor; [10]", "result": 0, "unit": "pmol/ml/μg prt"}, {"measurement": "% degradation in 24 h when incubated with DPP-IV enzyme", "setting": "DPP IV", "result": 72, "unit": "%"}, {"measurement": "Insulin secretion", "setting": "[5]; 0.1 nM test compd.", "result": "12.9 ± 0.14", "unit": "pg/µg/h"}, {"measurement": "Insulin secretion", "setting": "[5]; 1 nM test compd.", "result": "15.8 ± 0.13", "unit": "pg/µg/h"}, {"measurement": "Insulin secretion", "setting": "[5]; 10 nM test compd.", "result": "29.9 ± 0.15", "unit": "pg/µg/h"}]}
{"compound": "CCc1cc(OC)ccc1-c1ccc(CC(NC(=O)[C@H](CC(=O)O)NC(=O)[C@H](CO)NC(=O)[C@@H](NC(=O)C(C)(Cc2ccccc2F)NC(=O)[C@@H](NC(=O)CNC(=O)[C@H](CCC(N)=O)NC(=O)[C@H](CO)NC(=O)[C@@H](N)Cc2c[nH]cn2)[C@@H](C)O)[C@@H](C)O)C(=O)NC(Cc2ccc(-c3ccccc3F)cc2)C(N)=O)cc1", "note": "(single isomer, unassigned) [compound 23]", "values": [{"measurement": "% degradation in 24 h when incubated with human plasma", "setting": "[1]", "result": 80, "unit": "%"}, {"measurement": "half-life at 2 μM", "setting": "[1]; human, pooled human plasma, pH 7.8, 37° C., read-out: half-life (t1/2) in human plasma", "result": 480, "unit": "min"}, {"measurement": "% degradation in 24 h when incubated with liver microsomes", "setting": "[2]", "result": 82, "unit": "%"}, {"measurement": "half-life at 2 μM", "setting": "[2]", "result": 60, "unit": "min"}, {"measurement": "% degradation in 24 h when incubated with simulated gastric fluid", "setting": "[3]; 2 μM", "result": 13, "unit": "%"}, {"measurement": "half-life (t1/2) in simulated gastric fluid", "setting": "[3]; 2 μM", "result": "(8) h"}, {"measurement": "% degradation in 24 h when incubated with simulated intestinal fluid", "setting": "[4]; 2 μM, pH 7.5", "result": 50, "unit": "%"}, {"measurement": "half-life (t1/2) in simulated intestinal fluid", "setting": "[4]; 2 μM, pH 7.5", "result": "(6) h"}, {"measurement": "Human Glucagon receptor antagonistic activity, inhibition of cAMP production of Glucagon peptide", "setting": "human glucagon receptor; [6]", "result": 0, "unit": "pmol/ml/μg prt"}, {"measurement": "Human Glucagon receptor antagonistic activity, inhibition of cAMP production of Glucagon peptide", "setting": "human glucagon receptor; [7]", "result": "4 ± 0.05", "unit": "pmol/ml/μg prt"}, {"measurement": "Human Glucagon receptor antagonistic activity, inhibition of cAMP production of Glucagon peptide", "setting": "human glucagon receptor; [8]", "result": "2 ± 0.13", "unit": "pmol/ml/μg prt"}, {"measurement": "Human Glucagon receptor antagonistic activity, inhibition of cAMP production of Glucagon peptide", "setting": "human glucagon receptor; [9]", "result": "2 ± 0.12", "unit": "pmol/ml/μg prt"}, {"measurement": "Human Glucagon receptor antagonistic activity, inhibition of cAMP production of Glucagon peptide", "setting": "human glucagon receptor; [10]", "result": 0, "unit": "pmol/ml/μg prt"}, {"measurement": "% degradation in 24 h when incubated with DPP-IV enzyme", "setting": "DPP IV", "result": 77, "unit": "%"}, {"measurement": "half-life at 2 μM", "setting": "DPP IV; DPP IV enzyme, pH 7.8, 37° C., read-out: half-life (t1/2) with DPP-IV enzyme", "result": 540, "unit": "min"}, {"measurement": "Insulin secretion", "setting": "[5]; 0.1 nM test compd.", "result": "11.9 ± 0.17", "unit": "pg/µg/h"}, {"measurement": "Insulin secretion", "setting": "[5]; 1 nM test compd.", "result": "14.2 ± 0.13", "unit": "pg/µg/h"}, {"measurement": "Insulin secretion", "setting": "[5]; 10 nM test compd.", "result": "27.6 ± 0.16", "unit": "pg/µg/h"}]}
{"compound": "CCc1cc(OC)ccc1-c1ccc(CC(NC(=O)[C@H](CC(=O)O)NC(=O)[C@H](CO)NC(=O)[C@@H](NC(=O)[C@H](Cc2ccccc2)NC(=O)[C@@H](NC(=O)CNC(=O)[C@H](CCC(N)=O)NC(=O)[C@H](C)NC(=O)[C@@H](N)Cc2c[nH]cn2)[C@@H](C)O)[C@@H](C)O)C(=O)NC(Cc2ccc(-c3ccccc3C)cc2)C(N)=O)cc1", "note": "(single isomer, unassigned) [compound 9]", "values": [{"measurement": "half-life (t1/2) in human plasma", "setting": "[1]", "result": "(9) h"}, {"measurement": "% degradation in 24 h when incubated with human plasma", "setting": "[1]", "result": 75, "unit": "%"}, {"measurement": "% degradation in 24 h when incubated with liver microsomes", "setting": "[2]", "result": 100, "unit": "%"}, {"measurement": "half-life at 2 μM", "setting": "[2]", "result": 30, "unit": "min"}, {"measurement": "% degradation in 24 h when incubated with simulated gastric fluid", "setting": "[3]; 2 μM", "result": 100, "unit": "%"}, {"measurement": "half-life at 2 μM", "setting": "[3]", "result": 30, "unit": "min"}, {"measurement": "% degradation in 24 h when incubated with simulated intestinal fluid", "setting": "[4]; 2 μM, pH 7.5", "result": 100, "unit": "%"}, {"measurement": "half-life at 2 μM", "setting": "[4]", "result": 30, "unit": "min"}, {"measurement": "Human Glucagon receptor antagonistic activity, inhibition of cAMP production of Glucagon peptide", "setting": "human glucagon receptor; [6]", "result": "8 ± 0.02", "unit": "pmol/ml/μg prt"}, {"measurement": "Human Glucagon receptor antagonistic activity, inhibition of cAMP production of Glucagon peptide", "setting": "human glucagon receptor; [7]", "result": "18 ± 0.07", "unit": "pmol/ml/μg prt"}, {"measurement": "Human Glucagon receptor antagonistic activity, inhibition of cAMP production of Glucagon peptide", "setting": "human glucagon receptor; [8]", "result": "16 ± 0.01", "unit": "pmol/ml/μg prt"}, {"measurement": "Human Glucagon receptor antagonistic activity, inhibition of cAMP production of Glucagon peptide", "setting": "human glucagon receptor; [9]", "result": "12 ± 0.03", "unit": "pmol/ml/μg prt"}, {"measurement": "Human Glucagon receptor antagonistic activity, inhibition of cAMP production of Glucagon peptide", "setting": "human glucagon receptor; [10]", "result": "6 ± 0.08", "unit": "pmol/ml/μg prt"}, {"measurement": "% degradation in 24 h when incubated with DPP-IV enzyme", "setting": "DPP IV", "result": 74, "unit": "%"}, {"measurement": "Insulin secretion", "setting": "[5]; 0.1 nM test compd.", "result": "11.8 ± 0.50", "unit": "pg/µg/h"}, {"measurement": "Insulin secretion", "setting": "[5]; 1 nM test compd.", "result": "14.9 ± 0.11", "unit": "pg/µg/h"}, {"measurement": "Insulin secretion", "setting": "[5]; 10 nM test compd.", "result": "27.9 ± 0.31", "unit": "pg/µg/h"}]}
